From patent US5789542A, “Amphipathic peptides” (Board of Supervisors of Louisiana State University and …, priority 1997, dated 1998)
Where a SMILES comes first, the peptide text is derived from it.

Legend:
Type in all cases: cell-based
E. coli ATCC 25922 = assay: Minimum inhibitory concentration by broth microdilution, E. coli; conditions: 5×10^4 cells, incubated overnight
Description: (§1) Minimum inhibitory concentrations of several of the peptides were measured against E. coli ATCC 25922, Pseudomonas aeruginosa ATCC 27853, and Staphylococcus aureus ATCC 25723. Minimum inhibitory concentrations were obtained by the broth microdilution method. Peptide solutions were prepared over a range of concentrations from 2 μg/mL to 256 μg/mL. 5×10^4 cells were added to the peptide solutions in sterile wells and incubated overnight. Wells in which the organisms grew became turbid. The minimum inhibitory concentration was the lowest concentration that inhibited growth of the organism.
(§2) P. aeruginosa and E. coli are Gram-negative bacteria, while S. aureus is a Gram-positive bacterium. 3T3 cells are healthy Swiss mouse fibroblast cells, and 3T12 cells are transformed, immortalized mouse fibroblast cells. Thus the novel peptides (at the proper concentrations) have activity against both Gram-negative and Gram-positive bacteria, while not showing activity against mammalian cells. This combination of properties is itself rather unusual in a lytic peptide.

[1] = tested on: Pseudomonas aeruginosa ATCC 27853; assay: Minimum inhibitory concentration by broth microdilution, P. aeruginosa; conditions: 5×10^4 cells, incubated overnight
Description: as §1, §2

[2] = tested on: Staphylococcus aureus ATCC 25723; assay: Minimum inhibitory concentration by broth microdilution, S. aureus; conditions: 5×10^4 cells, incubated overnight
Description: as §1, §2

murine cell line 3T3 = assay: Sublethal concentration, Tryptan blue staining, 3T3 cells; conditions: healthy Swiss mouse fibroblast cells, thirty minutes at 37° C., highest concentration with at least one nucleus not stained
Description: (§3) Also shown in Table 1 are sublethal concentrations for some of the peptides against the murine cell lines 3T3 and 3T12. Dilutions of peptide were prepared over a range of concentrations. Equal volumes of peptide solution and 250-750 murine cells were mixed together. The cells were incubated for thirty minutes at 37° C. 50 μL of Tryptan blue stain were then added to each well. Under light microscopy, killed cells could be visualized by the fact that their nuclei were stained. The sublethal dose was the highest concentration for which at least one cell nucleus was not stained. (Blank entries in Table 1 correspond to assays that had not been completed as of the date this application is being filed. Values for those entries will be determined in future assays performed in the same manner.)
as §2

murine cell line 3T12 = assay: Sublethal concentration, Tryptan blue staining, 3T12 cells; conditions: transformed, immortalized mouse fibroblast cells, thirty minutes at 37° C., highest concentration with at least one nucleus not stained
Description: as §3, §2

mammalian cell = assay: Mammalian cell permeation to an exterior fluorescent dye; conditions: ratio to antibacterial concentration

Compound | Minimum Inhibitory Concentration, E. coli (E. coli ATCC 25922) [µM] | Minimum Inhibitory Concentration, P. aeruginosa [1] [µM] | Minimum Inhibitory Concentration, S. aureus [2] [µM] | Sublethal Concentration, 3T3 (murine cell line 3T3) | Sublethal Concentration, 3T12 (murine cell line 3T12) | Concentration at which mammalian cell permeation to an exterior fluorescent dye begins, relative to concentrations that effectively inhibited bacterial growth (mammalian cell)
(KALKALK)3 | 3.9 | 3.9 | 7.8 |  |  | 
cecropin B (KWKVFKKIEKMGRNIRNGIVKAGPAIAVLGEAKAL; UniProt P01508 27-61, looked up) [naturally occurring lytic peptide used for comparison, reference compound] | 0.20 | 0.20 | 1.7 |  |  | 
(KLAKKLA) | > 100 | > 100 | > 100 | N.L. | N.L. | 
(KLAKLAK) | > 95 | > 95 | > 95 |  |  | 
COC(=O)[C@H](C)NC(=O)[C@H](CC(C)C)NC(=O)[C@H](CCCCN)NC(=O)[C@H](CCCCN)NC(=O)[C@H](C)NC(=O)[C@H](CC(C)C)NC(=O)[C@H](CCCCN)NC(=O)[C@H](C)NC(=O)[C@H](CC(C)C)NC(=O)[C@H](CCCCN)NC(=O)[C@H](CCCCN)NC(=O)[C@H](C)NC(=O)[C@H](CC(C)C)NC(=O)[C@@H](N)CCCCN [(KLAKKLA)2] (H-KLAKKLAKLAKKLA-OMe) |  |  |  | 394 µM | 788 µM | 
CC[C@H](C)[C@H](NC(=O)CN)C(=O)NCC(=O)N[C@@H](C)C(=O)N[C@H](C(=O)N[C@@H](CC(C)C)C(=O)N[C@@H](CCCCN)C(=O)N[C@H](C(=O)N[C@@H](CC(C)C)C(=O)N[C@H](C(=O)N[C@H](C(=O)NCC(=O)N[C@@H](CC(C)C)C(=O)N1CCC[C@H]1C(=O)N[C@@H](C)C(=O)N[C@@H](CC(C)C)C(=O)N[C@H](C(=O)N[C@@H](CO)C(=O)N[C@@H](Cc1c[nH]c2ccccc12)C(=O)N[C@H](C(=O)N[C@@H](CCCCN)C(=O)N[C@@H](CCCNC(=N)N)C(=O)N[C@@H](CCCCN)C(=O)N[C@@H](CCCNC(=N)N)C(=O)N[C@@H](CCC(N)=O)C(=O)N[C@@H](CCC(N)=O)C(N)=O)[C@@H](C)CC)[C@@H](C)CC)[C@@H](C)O)[C@@H](C)O)C(C)C)C(C)C [melittin, reference compound] | 0.56 | 2.3 | 0.56 | 0.78 µM | 0.78 µM | 
(KLGKKLG)3 (KLGKKLGKLGKKLGKLGKKLG) | 3.4 | 3.4 | 3.4 | 565 µM | 565 µM | 
(KLAKLAK)4 (KLAKLAKKLAKLAKKLAKLAKKLAKLAK) | 9.4 | 9.4 | 9.4 |  |  | 
CC(C)C[C@H](NC(=O)[C@H](CCCCN)NC(=O)[C@H](C)NC(=O)[C@H](CC(C)C)NC(=O)[C@H](CCCCN)NC(=O)[C@H](CCCCN)NC(=O)[C@H](C)NC(=O)[C@H](CC(C)C)NC(=O)[C@H](CCCCN)NC(=O)[C@H](C)NC(=O)[C@H](CC(C)C)NC(=O)[C@H](CCCCN)NC(=O)[C@H](CCCCN)NC(=O)[C@H](C)NC(=O)[C@H](CC(C)C)NC(=O)[C@H](CCCCN)NC(=O)[C@H](C)NC(=O)[C@H](CC(C)C)NC(=O)[C@@H](N)CCCCN)C(=O)N[C@@H](C)C(=O)N[C@@H](CCCCN)C(N)=O [(KLAKLAK)3] | 3.7 | 3.7 | 3.7 |  |  | 
(KLAKKLA)4 (KLAKKLAKLAKKLAKLAKKLAKLAKKLA) | 9.0 | 9.0 | 9.0 | 13 µM | 52 µM | 
magainin 2 (KLGKKLGKLGKKLGKLGKKLG) [naturally occurring lytic peptide used for comparison, reference compound] | 1.3 | 0.65 | 1.3 |  |  | 
COC(=O)[C@H](C)NC(=O)[C@H](CC(C)C)NC(=O)[C@H](CCCCN)NC(=O)[C@H](CCCCN)NC(=O)[C@H](C)NC(=O)[C@H](CC(C)C)NC(=O)[C@H](CCCCN)NC(=O)[C@H](C)NC(=O)[C@H](CC(C)C)NC(=O)[C@H](CCCCN)NC(=O)[C@H](CCCCN)NC(=O)[C@H](C)NC(=O)[C@H](CC(C)C)NC(=O)[C@@H](N)CCCCN [Peptide 14-mer, (KLAKKLA)2 -OCH3] (H-KLAKKLAKLAKKLA-OMe) |  |  |  |  |  | about 50 times
(KLAKKLA)3 (KLAKKLAKLAKKLAKLAKKLA) | 4.2 | 4.2 | 4.2 | 9 µM | 17 µM | 
(KLAKLAK)2 (KLAKLAKKLAKLAK) | 5.8 | 5.8 | 5.8 |  |  | 
